# Measurements taken from patent publication US20210393645A1, “TREATMENT FOR PROGRESSIVE MULTIPLE SCLEROSIS” (UTI LIMITED PARTNERSHIP, priority 2016, published 2021).
# Counter-ions that a name gives are not always drawn.
# Columns and labels:
# [1] = tested on: C57BL/6 mice; test: MOG-EAE in C57BL/6 mice, clinical score; format: in vivo, mouse
# [2] = Hydroxyl radical antioxidant capacity (HORAC) assay; format: biochemical; details: vs 12.5 μM gallic acid (=1), 60 min
# Method: In this assay, hydroxyl radicals generated by a Co(II)-mediated Fenton-like reaction oxidize fluorescein causing loss of fluorescence (Ou et al., J Argricultural Food Chemistry 50:2772-2777, 2002). The presence of an anti-oxidant reduces the loss of fluorescence and this can be monitored every 5 min over a period of 60 min with a Spectra Max Gemini XS plate reader (Molecular Devices, Sunnyvale, Calif., USA) and the software SoftMax Pro version 5. For monitoring fluorescence, we used an excitation wavelength of λ=485 nm and an emission wavelength of λ=520 nm.
# The biochemical cell free hydroxyl radical antioxidant capacity (HORAC) assay investigates the prevention of hydroxyl radical mediated oxidation of to fluorescein in comparison to the strong anti-oxidant gallic acid. The generation of hydroxyl radicals by a cobalt-driven Fenton-like reaction oxidizes fluorescein with progressive loss of fluorescence. The presence of an anti-oxidant reduces the loss of fluorescence over time.
# We compared the area under the curve of test compounds to that elicited by gallic acid to obtain the gallic acid equivalent (GAE).
# [3] = tested on: T-cells; test: Proliferation of T-lymphocytes (3H-thymidine) in anti-CD3/anti-CD28 activated splenocytes; format: cell-based, mouse; details: concentration response
# [4] = tested on: human neurons; test: Mitochondrial damage to neurons induced by rotenone; format: cell-based; details: rotenone 10 μM, drug 10 μM
# Method: Human neurons were isolated from brain tissues of therapeutically aborted 15-20 week old fetuses, in accordance with ethics approval of the University of Calgary ethics committee, after written informed consent of the pregnant donors. Neurons were isolated as previously described (Vecil et al., 2000) brain specimens were washed in phosphate buffered saline (PBS) to remove blood, followed by removal of meninges. […] Thereafter, the digestion was stopped by addition of 4 ml fetal calf serum (FCS). The solution was filtered through a 132 μm filter and centrifuged (three times, 1,200 rpm, 10 min). Cells were cultured in feeding medium of minimal essential medium (MEM) supplemented with 10% fetal bovine serum (FBS), 1 μM sodium pyruvate, 10 μM glutamine, 1× non-essential amino acids, 0.1% dextrose and 1% penicillin/streptomycin (all culture supplements from Invitrogen, Burlington, Canada). […] For experiments, the neuron-enriched cultures were retrypsinized and cells were plated in poly-L-ornithine pre-coated 96-well plates at a density of 100,000 cells/well in 100 μl of the complete medium supplemented with cytosine arabinoside. […] All conditions were performed in quadruplicates. A day later cells were fixed using 4% paraformaldehyde (PFA) and stored in PBS in 4° C.
# The iron stock solution was prepared using 27.8 mg iron(II) sulfate heptahydrate (FeSO4) (Sigma-Aldrich, Oakville, Canada), 10 μl of 17.8M sulfuric acid and 10 ml deionized distilled water. After filtering with a 0.2 μm filter, FeSO4 was added to cells in a final concentration of 25-50 μM in a volume of 50 μl medium to the cells. Rotenone was dissolved in dimethyl sulfoxide (DMSO) and used in a final concentration of 10 μM.
# [5] = tested on: Ifng, Tnfa, Il-17 and Ccl2 transcripts; test: RT-PCR of inflammatory transcripts in lumbar spinal cord of EAE mice; format: in vivo, mouse; details: 25 mg/kg IP from day 0, sacrifice day 15
# Method: Lumbar spinal cords were harvested, snap frozen in liquid nitrogen and stored in -80° C. Samples were homogenized in 1 ml Trizol followed by the addition of 200 μI chloroform. […] RNA was extracted using the RNeasy Mini Kit according to the manufacturer's instruction (Qiagen). RNA concentrations were measured using a Nanodrop (Thermo Fisher Scientific). cDNA preparation was performed using the RT2 First Strand kit (Qiagen) with 1μg of RNA according to the manufacturer's instructions. Real time PCR was performed using the QuantStudio 6 Flex (Applied Biosystems by Life Technologies) with FAST SYBR Green and primers for Gapdh (Qiagen) as housekeeping gene, lfn-γ (Qiagen, QT01038821), Tnfa (Qiagen, QT00104006), II-17 (SABiosciences, PPM03023A-200) and CcI2 (Qiagen, QT00167832). Relative expression was calculated using the ΔΔCT method with Gapdh as housekeeping gene. Data were normalized to gene expression in naïve mice.
# [6] = tested on: T-cells; test: Proliferation of T-lymphocytes (3H-thymidine) in anti-CD3/anti-CD28 activated splenocytes; format: cell-based, mouse; details: Mus musculus, T-cell, 72 h; drug 10 μM, vs activated splenocytes; read-out: mean reduction of 3H-thymidine incorporation (T-cell proliferation)
# Method: A previously published protocol was used for isolating and activating T-cells (Keough et al., Nature Comm 7:11312, 2016). Spleens from female C57B16 mice were harvested and after mechanical dissociation the cell suspension was passed through a 70 μm cell strainer and separated by Ficoll gradient (1800 RPM, 30 min). Splenocytes were plated (2.5×10^5 cells in 100 μl/well) in anti-CD3 antibody coated 96-well plates (1,000 ng m1^−1 plate-bound anti-CD3 and 1,000 ng m1^−1 anti-CD28 suspended in media) to activate T-cells. Directly before plating, wells were treated with respective drugs in a final concentration of 10 μM. Cells were cultured in RPMI 1640 medium, supplemented with 10% FBS, 1 μM sodium pyruvate, 2 mM L-alanyl-L-glutamine, 1% penicillin/streptomycin, 1% HEPES and 0.05 mM 2-mercaptoethanol (all supplements were from Invitrogen). After 48 h, ^3H-thymidine was added in a concentration of 1 μCi per well, and cells were harvested after 24 h on filter mats. Mats were then evaluated for radioactivity (counts per minute) using a liquid scintillation counter.
# [7] = 25 mg/kg IP from onset of clinical signs (day 13)
smiles,measurement,setting,value
CN(C)CCCN1c2ccccc2CCc2ccc(Cl)cc21 [CLOMIPRAMINE HYDROCHLORIDE],manifestations of clinical signs,[1]; 25 mg/kg IP from day 0 (day of MOG induction),completely suppressed
same,delay of onset of clinical signs,[1]; 25 mg/kg IP from day 5 after induction,2 days
same,"clinical disability of first relapse, days 14-20",[1]; [7],attenuated the marked rise in clinical disability
same,"second increase in clinical scores, days 42-50",[1]; [7],prevented
same,severity of the second relapse,[1]; 25 mg/kg IP from remission after first relapse (day 31),did not affect the severity of the second relapse
same,mean HORAC-GAE (gallic acid equivalents),[2],2.1
same,concentration from which T-lymphocyte proliferation is significantly reduced,[3],5 µM
same,neurotoxicity by rotenone (mitochondrial damage),[4],trended towards a protective activity
same,"elevation of transcripts encoding Ifng, Tnfa, Il-17 and Ccl2 in spinal cord",[5],abrogated
same,inhibition at 10 µM,[6],68.2%
